Measured values from publication PMC7930286 (Heliyon, 2021).

How the values were obtained:
[1] = molecular target: α-glucosidase; assay: Inhibitory assay of α-glucosidase; assay type: biochemical; conditions: for Alpha-glucosidase %inhibition (mean ± SEM): n = 3
[2] = molecular target: α-amylase; assay: Inhibitory assay of α-amylase; assay type: biochemical; conditions: for Alpha-amylase % inhibition (mean ± SEM): n = 3
[3] = ABTS free radical scavenging assay; conditions: for ABTS percent inhibition (mean ± S.E.M): n = 3
[4] = Solubility description of isolated compounds; assay type: physicochemical
[5] = molecular target: acetylcholinesterase (AChE) (Homo sapiens, UniProt P22303); assay: biochemical; conditions: for inhibition at 62.5 µg/mL / inhibition at 250 µg/mL / inhibition at 500 µg/mL / inhibition at 1000 µg/mL: read-out: Percent AChE inhibition (mean ± SEM)
[6] = molecular target: butyrylcholinesterase (BChE) (Homo sapiens, UniProt P06276); assay: Anticholinesterase; assay type: biochemical; conditions: for inhibition at 62.5 µg/mL: read-out: Percent BChE inhibition (mean ± SEM), 62.5 μg/mL; for inhibition at 125 µg/mL: read-out: Percent BChE inhibition (mean ± SEM), 125 μg/mL; for inhibition at 250 µg/mL: read-out: Percent BChE inhibition (mean ± SEM), 250 μg/mL; for inhibition at 500 µg/mL: read-out: Percent BChE inhibition (mean ± SEM), 500 μg/mL; for inhibition at 1000 µg/mL: read-out: Percent BChE inhibition (mean ± SEM), 1000 μg/mL
[7] = DPPH free radical scavenging assay; conditions: for DPPH Percent inhibition (mean ± S.E.M): n = 3

butyrylcholinesterase (BChE), sequence (P06276 29-602, species assumed): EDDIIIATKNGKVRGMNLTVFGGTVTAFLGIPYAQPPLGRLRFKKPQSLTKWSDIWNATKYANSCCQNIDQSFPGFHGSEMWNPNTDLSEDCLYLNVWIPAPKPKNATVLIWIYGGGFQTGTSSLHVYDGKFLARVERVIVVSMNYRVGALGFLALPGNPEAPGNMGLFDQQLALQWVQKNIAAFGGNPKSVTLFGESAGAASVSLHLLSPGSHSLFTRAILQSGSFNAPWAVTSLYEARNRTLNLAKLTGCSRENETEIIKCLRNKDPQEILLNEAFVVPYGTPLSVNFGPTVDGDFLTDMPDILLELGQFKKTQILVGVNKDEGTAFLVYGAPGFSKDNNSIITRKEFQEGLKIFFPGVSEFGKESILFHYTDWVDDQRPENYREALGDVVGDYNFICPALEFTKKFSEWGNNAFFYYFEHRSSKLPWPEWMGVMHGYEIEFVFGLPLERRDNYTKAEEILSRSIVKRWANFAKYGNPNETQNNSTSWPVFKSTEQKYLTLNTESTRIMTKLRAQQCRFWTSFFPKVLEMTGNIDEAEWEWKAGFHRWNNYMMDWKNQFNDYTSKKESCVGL
acetylcholinesterase (AChE), sequence (P22303 32-614, species assumed): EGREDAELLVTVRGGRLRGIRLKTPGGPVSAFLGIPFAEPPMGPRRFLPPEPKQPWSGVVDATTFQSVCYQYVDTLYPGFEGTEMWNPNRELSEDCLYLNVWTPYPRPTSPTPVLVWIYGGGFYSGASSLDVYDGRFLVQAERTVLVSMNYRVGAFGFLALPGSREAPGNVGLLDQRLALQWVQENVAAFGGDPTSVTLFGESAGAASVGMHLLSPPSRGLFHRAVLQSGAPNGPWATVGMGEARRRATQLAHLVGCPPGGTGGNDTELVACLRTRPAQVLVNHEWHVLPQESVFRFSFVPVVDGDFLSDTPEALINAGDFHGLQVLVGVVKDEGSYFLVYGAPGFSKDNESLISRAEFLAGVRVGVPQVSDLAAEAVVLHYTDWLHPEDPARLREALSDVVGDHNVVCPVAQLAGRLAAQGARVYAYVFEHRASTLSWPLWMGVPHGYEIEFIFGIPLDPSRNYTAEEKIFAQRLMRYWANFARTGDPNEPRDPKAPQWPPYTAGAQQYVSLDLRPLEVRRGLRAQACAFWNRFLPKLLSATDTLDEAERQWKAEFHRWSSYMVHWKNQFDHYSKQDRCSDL

| SMILES | Alpha-glucosidase IC50 [1] | Alpha-amylase IC50 [2] | Alpha-amylase % inhibition (mean ± SEM) ([2]; 125 μg/mL) | Alpha-amylase % inhibition (mean ± SEM) ([2]; 250 μg/mL) | Alpha-amylase % inhibition (mean ± SEM) ([2]; 500 μg/mL) | Alpha-amylase % inhibition (mean ± SEM) ([2]; 1000 μg/mL) | ABTS IC50 [3] | ABTS percent inhibition (mean ± S.E.M) ([3]; 62.5 μg/mL) | ABTS percent inhibition (mean ± S.E.M) ([3]; 250 μg/mL) | ABTS percent inhibition (mean ± S.E.M) ([3]; 500 μg/mL) | ABTS percent inhibition (mean ± S.E.M) ([3]; 1000 μg/mL) | inhibition at 62.5 µg/mL ([6]; n = 3) | inhibition at 250 µg/mL ([6]; n = 3) | inhibition at 500 µg/mL ([6]; n = 3) | DPPH IC50 [7] | DPPH Percent inhibition (mean ± S.E.M) ([7]; 62.5 μg/mL) | DPPH Percent inhibition (mean ± S.E.M) ([7]; 125 μg/mL) | DPPH Percent inhibition (mean ± S.E.M) ([7]; 250 μg/mL) | DPPH Percent inhibition (mean ± S.E.M) ([7]; 500 μg/mL) | DPPH Percent inhibition (mean ± S.E.M) ([7]; 1000 μg/mL) | also measured |
| --- | --- | --- | --- | --- | --- | --- | --- | --- | --- | --- | --- | --- | --- | --- | --- | --- | --- | --- | --- | --- | --- |
| CCCCCCCOc1ccc(C(=O)O)cc1 [Compound VII, 4-heptyloxy benzoic acid] | 108 µg/mL | 110 µg/mL | 51.4 ± 1.5∗∗∗ % | 61.2 ± 2.2∗ % | 64.5 ± 2.8∗∗ % | 73.3 ± 1.1∗∗∗∗ % | 115 µg/mL | 46.1 ± 1.9∗∗ % | 62.1 ± 1.3∗∗∗ % | 71.2 ± 2.1∗∗∗∗ % | 80.1 ± 1.0∗∗∗∗ % | 47.2 ± 1.2% | 62.1% | 71.1 ± 0.8% | 118 µg/mL | 46.7 ± 2.1∗∗ % | 51.9 ± 1.3∗∗ % | 62.5 ± 1.1∗∗∗∗ % | 71.2 ± 1.3∗∗∗∗ % | 80.4 ± 1.1∗∗∗∗ % | solubility (description) [4]: soluble in organic solvents; IC50 [5]: 377 µM; inhibition at 62.5 µg/mL [5]: 47.8 ± 1.3%; inhibition at 250 µg/mL [5]: 62.3 ± 1.1%; inhibition at 500 µg/mL [5]: 71.5 ± 1.6%; inhibition at 1000 µg/mL [5]: 80.1 ± 1.2%; IC50 ([6]; BChE IC50): 381 µM; inhibition at 125 µg/mL ([6]; n = 3): 53.4 ± 1.1%; inhibition at 1000 µg/mL ([6]; n = 3): 80 ± 1.1% |
| COc1ccc(C(=O)O)cc1OC [Compound VI, 3,4-dimethoxy benzoic acid] | 84 µg/mL | 112 µg/mL | 50.3 ± 2.4∗∗ % | 59.1 ± 1.9∗∗∗∗ % | 71.3 ± 1.7∗∗∗∗ % | 79.0 ± 3.2∗∗∗∗ % | 67 µg/mL | 48.2 ± 1.3∗∗ % | 61.1 ± 1.4∗∗∗ % | 71.0 ± 1.6∗∗∗∗ % | 81.2 ± 1.0∗∗∗∗ % | 47 ± 1.1% | 61.4 ± 0.3% | 71.1 ± 1.6% | 67 µg/mL | 48.2 ± 2.3 ^ns % | 54.7 ± 2.1∗∗ % | 63.7 ± 0.8∗∗∗∗ % | 72.3 ± 0.3∗∗∗∗ % | 82.1 ± 1.2∗∗∗∗ % | Alpha-glucosidase %inhibition (mean ± SEM) ([1]; 125 μg/mL): 54.3 ± 1.5∗∗∗ %; Alpha-glucosidase %inhibition (mean ± SEM) ([1]; 250 μg/mL): 62.5 ± 2.4∗∗∗ %; Alpha-glucosidase %inhibition (mean ± SEM) ([1]; 500 μg/mL): 68.2 ± 1.7∗∗ %; Alpha-glucosidase %inhibition (mean ± SEM) ([1]; 1000 μg/mL): 84.6 ± 1.5∗∗∗∗ %; solubility (description) [4]: soluble in organic solvents; IC50 [5]: 494 µM; inhibition at 62.5 µg/mL [5]: 47.2 ± 1.5%; inhibition at 250 µg/mL [5]: 62.1 ± 2%; inhibition at 500 µg/mL [5]: 71.2 ± 1.8%; inhibition at 1000 µg/mL [5]: 80.7 ± 1.1%; Percent BChE inhibition (mean ± SEM) ([6]; 1000 μg/mL, n = 3): 79.8 ± 1.4∗∗ %; inhibition at 125 µg/mL ([6]; n = 3): 53.5 ± 1.6% |
| COc1ccc2c3c1O[C@H]1C[C@@H](O)C=C[C@@]31CCN(C)C2 [Galantamine, reference compound] |  |  |  |  |  |  |  |  |  |  |  | 54.1 ± 1% | 71.8 ± 1.5% | 81.8 ± 1.4% |  |  |  |  |  |  | inhibition at 1000 µg/mL ([6]; n = 3): 92 ± 0.8% |
| O=C1O[C@H]([C@@H](O)CO)C(O)=C1O [Ascorbic acid, reference compound] |  |  |  |  |  |  | 39 µg/mL | 52.1 ± 1.1% | 72.1 ± 0.4% | 83.1 ± 1.1% | 93.0 ± 0.7% |  |  |  | 38 µg/mL | 52.2 ± 2.3% | 63.2 ± 1.1% | 73.8 ± 2.2% | 84.1 ± 0.4% | 93.2 ± 0.1% |  |
| C[C@H]1O[C@H](O[C@H]2[C@H](O)[C@@H](O)[C@@H](O[C@H]3[C@H](O)[C@@H](O)C(O)O[C@@H]3CO)O[C@@H]2CO)[C@H](O)[C@@H](O)[C@@H]1N[C@H]1C=C(CO)[C@@H](O)[C@H](O)[C@H]1O (some centres unmarked) [Acarbose, reference compound] |  |  | 57.0 ± 1.2% | 66.4 ± 1.2% | 77.1 ± 1.4% | 92.1 ± 0.8% |  |  |  |  |  |  |  |  |  |  |  |  |  |  |  |
